From PubChem BioAssay (NCI)
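Five concentrations, 48 hours, 96-well plates. GI50 is the concentration that inhibits growth by half. TGI: total growth inhibition.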

Tests used:
Assay in all cases: inhibition of tumour cell growth, NCI panel, 48 h
ACHN renal = tested on: ACHN renal
BT-549 breast = tested on: BT-549 breast
HS 578T breast = tested on: HS 578T breast
HT29 colon = tested on: HT29 colon
KM12 colon = tested on: KM12 colon
OVCAR-5 ovarian = tested on: OVCAR-5 ovarian
SF-295 CNS = tested on: SF-295 CNS
SK-MEL-5 melanoma = tested on: SK-MEL-5 melanoma
SNB-75 CNS = tested on: SNB-75 CNS
SNB-78 CNS = tested on: SNB-78 CNS
U251 CNS = tested on: U251 CNS
DMS 273 small cell lung = tested on: DMS 273 small cell lung
SK-MEL-2 melanoma = tested on: SK-MEL-2 melanoma

CC(=O)O[C@@]12CO[C@@H]1CC(O)[C@@]1(C)C(=O)[C@H](O)C3=C(C)C(O)C[C@@](O)(C(OC(=O)c4ccccc4)C12)C3(C)C (some centres undefined) showed a TGI (ACHN renal) of over 100 µM, a TGI (BT-549 breast) of over 100 µM and a TGI (HS 578T breast) of 1.18 µM. For the same compound, the TGI (HT29 colon) was 23.8 µM, the TGI (KM12 colon) was over 89.2 µM and the TGI (OVCAR-5 ovarian) was over 29.1 µM. The TGI (SF-295 CNS) was over 51.1 µM, the TGI (SK-MEL-5 melanoma) was over 100 µM and the TGI (SNB-75 CNS) was 5.7 µM. The TGI (SNB-78 CNS) was over 100 µM and the TGI (U251 CNS) was 18.1 µM.
In the case of CN(C)CCCNc1ccc2ncn3c4ccc(O)cc4c(=O)c1c23, the TGI (ACHN renal) was 4.04 µM, the TGI (BT-549 breast) was 31.9 µM and the TGI (DMS 273 small cell lung) was 12.1 µM. For the same compound, the TGI (HS 578T breast) was 13.6 µM, the TGI (HT29 colon) was 12.9 µM and the TGI (KM12 colon) was 16.7 µM. It also gave a TGI (OVCAR-5 ovarian) of 15.7 µM, a TGI (SF-295 CNS) of 15.6 µM and a TGI (SK-MEL-2 melanoma) of 19.6 µM. It also gave a TGI (SK-MEL-5 melanoma) of 9.57 µM, a TGI (SNB-75 CNS) of 11.7 µM and a TGI (SNB-78 CNS) of 26.6 µM. The TGI (U251 CNS) was 4.6 µM.
Cc1ccc(NC(=O)C(=O)C2C(=O)NC(=O)NC2=O)cc1C gave a TGI (ACHN renal) of over 100 µM, a TGI (DMS 273 small cell lung) of over 100 µM and a TGI (HT29 colon) of over 100 µM. For the same compound, the TGI (KM12 colon) was over 100 µM, the TGI (OVCAR-5 ovarian) was over 100 µM and the TGI (SF-295 CNS) was over 100 µM. For the same compound, the TGI (SK-MEL-2 melanoma) was over 100 µM, the TGI (SK-MEL-5 melanoma) was over 100 µM and the TGI (SNB-75 CNS) was over 100 µM. For the same compound, the TGI (SNB-78 CNS) was over 100 µM and the TGI (U251 CNS) was over 100 µM.
C[n+]1c2ccccc2c(NC(CCCN=C(N)N)C(=O)O)c2ccccc21 (centres undefined) gave a TGI (ACHN renal) of over 100 µM, a TGI (DMS 273 small cell lung) of over 100 µM and a TGI (HT29 colon) of over 100 µM. The TGI (KM12 colon) was over 100 µM, the TGI (OVCAR-5 ovarian) was over 100 µM and the TGI (SF-295 CNS) was over 100 µM. For the same compound, the TGI (SK-MEL-2 melanoma) was over 100 µM, the TGI (SK-MEL-5 melanoma) was over 100 µM and the TGI (SNB-75 CNS) was over 100 µM. It also gave a TGI (SNB-78 CNS) of over 100 µM and a TGI (U251 CNS) of over 100 µM.
Work on COc1ccc(/C=N/N=C(\N)NO)c(OC)c1C yielded a TGI (ACHN renal) of 43.1 µM, a TGI (HT29 colon) of over 100 µM and a TGI (KM12 colon) of over 100 µM. The TGI (OVCAR-5 ovarian) was 7.69 µM, the TGI (SF-295 CNS) was over 100 µM and the TGI (SK-MEL-2 melanoma) was 70.6 µM. The TGI (SNB-78 CNS) was over 100 µM and the TGI (U251 CNS) was over 100 µM.
CCCC(=O)[O-].CCCC(=O)[O-].NCCN.NCCN.[Co+3].[O-][Cl+3]([O-])([O-])[O-] gave a TGI (ACHN renal) of over 100 µM, a TGI (HT29 colon) of over 100 µM and a TGI (KM12 colon) of over 100 µM. The TGI (OVCAR-5 ovarian) was over 100 µM, the TGI (SF-295 CNS) was over 100 µM and the TGI (SK-MEL-2 melanoma) was over 100 µM. For the same compound, the TGI (SK-MEL-5 melanoma) was over 100 µM, the TGI (SNB-75 CNS) was over 100 µM and the GI50 (SNB-78 CNS) was over 100 µM. It also gave a TGI (SNB-78 CNS) of over 100 µM and a TGI (U251 CNS) of over 100 µM.
With COc1ccc2nc3cc(Cl)ccc3c(Sc3ccc(NC(C)=O)cc3)c2c1 the TGI (ACHN renal) was 18.7 µM, the TGI (DMS 273 small cell lung) was 21.6 µM and the TGI (HT29 colon) was over 100 µM. It also gave a TGI (KM12 colon) of over 35.2 µM, a TGI (OVCAR-5 ovarian) of over 45.7 µM and a TGI (SF-295 CNS) of over 51.2 µM. It also gave a TGI (SK-MEL-2 melanoma) of over 26.4 µM, a TGI (SK-MEL-5 melanoma) of over 45.5 µM and a TGI (SNB-75 CNS) of over 54.9 µM. For the same compound, the TGI (SNB-78 CNS) was 62.1 µM and the TGI (U251 CNS) was over 20.7 µM.
Work on Nc1c(S(=O)(=O)c2ccccc2)c2nc3ccccc3nc2n2c1nc1ccccc12 yielded a TGI (ACHN renal) of over 100 µM, a TGI (DMS 273 small cell lung) of over 71.9 µM and a TGI (HT29 colon) of over 100 µM. For the same compound, the TGI (KM12 colon) was over 100 µM, the TGI (OVCAR-5 ovarian) was over 100 µM and the TGI (SF-295 CNS) was over 53.4 µM. It also gave a TGI (SK-MEL-2 melanoma) of over 100 µM, a TGI (SK-MEL-5 melanoma) of over 66.2 µM and a TGI (SNB-75 CNS) of over 51.1 µM. The TGI (SNB-78 CNS) was over 62.1 µM and the TGI (U251 CNS) was over 47.5 µM.
O=C1OCC2OC(=O)c3cc(O)c(O)c(O)c3-c3c(O)c(O)c(O)c4c3C(=O)OC(C2OC(=O)c2cc(O)c(O)c(O)c2-c2c1cc(O)c(O)c2O)C1OC(=O)C2C4=C(O)C(=O)C23Oc2cc(O)c4c(c2[C@H]13)O[C@H](c1ccc(O)c(O)c1)[C@@H](O)C4 (some centres undefined) gave a TGI (ACHN renal) of 56.6 µM, a TGI (BT-549 breast) of 83.3 µM and a TGI (HS 578T breast) of over 100 µM. For the same compound, the TGI (HT29 colon) was 42.7 µM, the TGI (KM12 colon) was over 100 µM and the TGI (OVCAR-5 ovarian) was 36.2 µM. It also gave a TGI (SF-295 CNS) of 53.5 µM, a TGI (SK-MEL-2 melanoma) of 64.4 µM and a TGI (SK-MEL-5 melanoma) of 33.8 µM. The TGI (SNB-75 CNS) was 76 µM and the TGI (U251 CNS) was 42.7 µM.
O=C1C(Br)=CC2(C=C1Br)CCNC1=C2C(=O)c2ncccc2C1=O gave a TGI (ACHN renal) of 1.94 µM, a TGI (BT-549 breast) of 2.73 µM and a TGI (HS 578T breast) of 5.34 µM. For the same compound, the TGI (HT29 colon) was 4.56 µM, the TGI (KM12 colon) was 3.53 µM and the TGI (OVCAR-5 ovarian) was 3.09 µM. It also gave a TGI (SF-295 CNS) of 2.74 µM, a TGI (SK-MEL-2 melanoma) of 0.38 µM and a TGI (SK-MEL-5 melanoma) of 1.62 µM. It also gave a TGI (SNB-75 CNS) of 2.9 µM and a TGI (U251 CNS) of 5.6 µM.
